Results as given in US11701360B2, “Composition for inducing differentiation and protection of neural stem cells and method for inducing neuro-regeneration using the same composition” (GENUV Inc., priority 2017, dated 2023).
“Also recorded” adds a separate entry of the source. Where two headings read alike, the source gives them in different places.

Assays:
[1] = test system: mouse embryonic neural stem cells; test: Immunocytochemistry analysis (Tuj1/DAPI staining); type: cell-based; details: 4 days
Experimental: Tuj1 (Neuron specific class III beta-tubulin) is a neuron specific marker protein, which was conjugated to rhodamine to show fluorescent red, while DAPI binds to the cell DNA and stains the cell nuclei fluorescent blue. […] The medium was removed and the cells were washed with PBS. After fixing with 10% formaldehyde (Sigma cat #. HT501128) at room temperature for 10 minutes, they were washed again with PBS. They were permeabilized with 0.2% Triton X-100 (Sigma, cat #. 93443) at room temperature for 15 minutes, washed with PBS, and incubated with 10% BSA (Sigma, cat #. A2153)+1% normal goat serum (Vector lab, Burlingame, Calif., cat #. S1000) at room temperature for 1 hour. […] The solution was removed, washed with PBS, and incubated at room temperature for 1 hour with the secondary antibody (rhodamine-conjugated antibody) diluted in 1% BSA+1% normal goat serum at a ratio of 1:200. Then, the cells were washed with PBS, incubated with 5 μg/ml DAPI (Sigma, cat #. D9542) for 5 minutes, washed with PBS again, and mounted on a slide glass for analysis with a fluorescent microscope.

[2] = test system: mouse adult neural stem cells; details: for cell protection and differentiation of NSC under amyloid-beta cytotoxicity: 10 μM amyloid-beta, second day of culture; for concentration at which differentiation-inducing effect starts: no amyloid-beta, day 2 of culture
Experimental: NSC were isolated from the subventricular zone of week 8 mouse brain, treated with 20 ng/ml human basic fibroblast growth factor (bFGF) and 20 ng/ml human epidermal growth factor (EGF) in an IPM medium, and cultured as a suspension in 24-well plates for 7 days.
Two days before the isolation of single cells, 6-well plates were prepared by treating the wells with 10 μg/ml poly-L-ornithine solution and incubating overnight at room temperature for coating. The next day, poly-L-ornithine solution was removed and the plates were washed 3 times with sterilized triple distilled water. […] The culture solution used is N2 culture medium (supplemented with 20 ng/ml bFGF and 20 ng/ml EGF). Right before seeding, the coating solution was suctioned out, and the single cells were uniformly seeded into the culture plate before the plate dried up. Cells were allowed to attach to the plates for about one minute, and after checking that cells were sufficiently attached, an additional 1.5 ml of culture medium (N2 culture medium with 20 ng/ml bFGF and 20 ng/ml EGF) was added to the cells and cultured in a 37° C. incubator for 24 hours.
Wells not treated with amyloid-beta were left to use as negative controls.
Gibco's (Waltham, Mass.) human Aβ (1-42) was purchased to use for the amyloid-beta (Aβ), and the following process was followed to create oligomers. […] Then, it was dried for 10 minutes in a speed Vac, after which DMSO (Sigma, cat #.D2650) was added to bring the concentration to 5 mM and then lightly vortexed at room temperature for 10 minutes. […] The solution was incubated at 4° C. for 24 hours and then added into the cultured cells.
The NCSs were cultured with the daily addition of EGF, bFGF, amyloid-beta, and test materials for 4 days.

[3] = cited from earlier work
[4] = test system: mouse embryonic neural stem cells; test: Morphology analysis (phase-contrast) of NSC differentiation in mouse embryonic neural stem cells; type: cell-based; details: 1.0 μM and 10 μM; day 2 of culture
Experimental: Neural stem cells were isolated from the brain of a day 14.5 mouse embryo, treated with 10 ng/ml human basic fibroblast growth factor (bFGF) (Peprotech, Princeton, NG, cat #0.100-18B) and 20 ng/ml human epidermal growth factor (EGF) (Peprotech, cat #. AF-100-15) in a N2 culture medium, and cultured in suspension in a 25 cm2 flask (Nunc, Pittsburgh, Pa.) for 4 days. Formation of neurospheres was observed after 2 days.
In order to isolate single cells, 6-well plates were prepared the day before by treating the wells with 15 μg/ml poly-L-ornithine (Sigma, St. Louis, Mo., cat #.P2533) solution and incubating overnight at 37° C. for coating. The day of the single cell isolation, poly-L-ornithine solution was removed, the plates were washed with PBS three times, and 10 μg/ml fibronectin (Gibco, Waltham, Mass., cat #. 33016015) solution was added and incubated at 37° C. for 2 hours for coating.
Various concentrations of the compound of [Formula 1]
FIG. 10b is the analysis of Tuj1 mRNA expression in the cells of each group.

[5] = target: MEK1 (Homo sapiens (Human), UniProt Q02750); details: cited from earlier work
MEK1, sequence (Q02750 whole entry, species assumed): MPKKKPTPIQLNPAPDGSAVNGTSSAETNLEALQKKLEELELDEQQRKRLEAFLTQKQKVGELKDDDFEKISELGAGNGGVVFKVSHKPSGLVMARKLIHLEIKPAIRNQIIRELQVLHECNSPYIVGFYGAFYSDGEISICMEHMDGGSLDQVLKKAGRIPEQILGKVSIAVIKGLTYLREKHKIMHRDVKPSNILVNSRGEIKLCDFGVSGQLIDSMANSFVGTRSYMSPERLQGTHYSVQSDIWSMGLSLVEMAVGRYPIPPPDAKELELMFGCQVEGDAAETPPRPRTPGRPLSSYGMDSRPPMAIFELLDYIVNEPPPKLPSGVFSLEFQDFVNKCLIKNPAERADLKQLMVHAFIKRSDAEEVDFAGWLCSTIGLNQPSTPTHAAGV

O=C(NC[C@H](O)CO)c1ccncc1Nc1ccc(I)cc1F [AS703026, pimasertib]
neuron differentiation (Tuj1 staining) ([1]; 0.1 μM): no differentiation was observed
neuron differentiation (Tuj1 staining) ([1]; 1.0 μM): neuron differentiation occurs at this concentration, albeit only to a marginal extent
cell protection and differentiation of NSC under amyloid-beta cytotoxicity ([2]; compound 10 μM): provided cell protection and induced the differentiation of NSC
cell toxicity ([2]; trametinib 10 nM and 100 nM, AS703026 10 μM, 4 days): did not elicit cell toxicity
expression of phosphorylated ERK in the mouse brain [3]: decrease the expression of phosphorylated ERK
crossing of the blood brain barrier ([3]; mouse): effectively cross the BBB

Cc1cc(C(=O)NOCCO)c(Nc2ccc(I)cc2F)n(C)c1=O [AZD8330]
cell protection and differentiation of NSC under amyloid-beta cytotoxicity ([2]; compound 1 μM): provided cell protection and induced the differentiation of NSC

O=C(NOCC1CC1)c1ccc(F)c(F)c1Nc1ccc(I)cc1Cl [PD184352]
cell death [4]: all the cells died

O=C(NOCC(O)CO)c1cc(Br)c(F)c(F)c1Nc1ccc(I)cc1F (stereo not drawn) [PD318088]
cell protection and differentiation of NSC under amyloid-beta cytotoxicity ([2]; compound 1 μM): provided cell protection and induced the differentiation of NSC

O=C(NOC[C@H](O)CO)c1ccc(F)c(F)c1Nc1ccc(I)cc1F [PD0325901]
differentiation-inducing effect (morphology) ([2]; 0.1 μM to 10 μM, day 2): excellent inducing effect
concentration at which differentiation-inducing effect starts [2]: 0.1 µM

CNS(=O)(=O)Nc1nccc(Cc2c(C)c3ccc(Oc4ncccn4)cc3oc2=O)c1F [RO5126766]
concentration at which differentiation-inducing effect starts [2]: 1.0 µM

N#CC(=C(/N)Sc1ccccc1N)/C(C#N)=C(\N)Sc1ccccc1N [U0126]
cell proliferation ([2]; 0.1 μM and 1.0 μM, day 2): inhibition of cell proliferation
differentiation-inducing effect (morphology) ([2]; 2.5 μM, day 2): did not show any clear differentiation-inducing effect
cell cytotoxicity ([2]; 10 μM, day 2): cell cytotoxicity
NSC differentiation-inducing effect (morphology) ([2]; all concentrations tested, day 2): failed to show any NSC differentiation-inducing effect

O=C(c1ccc(F)c(F)c1Nc1ccc(I)cc1F)N1CC(O)([C@@H]2CCCCN2)C1 [cobimetinib]
selectivity toward MEK1 compared with MEK2 [5]: ≥ 100 ×
differentiation of adult NSC (morphology) ([2]; 10 μM, regardless of whether amyloid-beta was added, second day): did not induce the differentiation of adult NSC; also recorded: does not induce the differentiation of mouse adult neural stem cells

CC12CC3CC(C)(C1)CC(N)(C3)C2 [memantine]
cell death of neural stem cells ([2]; 5 μM and 10 μM, 4 days): death of neural stem cells
differentiation of NSC into neurons (morphology) ([2]; 5 μM and 10 μM, 4 days): not observed

COc1cc(F)c(F)c(Nc2ccc(I)cc2F)c1NS(=O)(=O)C1(C[C@H](O)CO)CC1 [refametinib]
cell protection and differentiation of NSC under amyloid-beta cytotoxicity ([2]; compound 1 μM): provided cell protection and induced the differentiation of NSC

BI847325
cell proliferation ([2]; 1.0 nM and 10 nM, day 2): somewhat inhibited
differentiation-inducing effect (morphology) ([2]; 1.0 nM and 10 nM, day 2): not observed
differentiation-inducing effect (morphology) ([2]; 0.1 μM, day 2): only a weak differentiation-inducing effect
